Data: patent publication US20240116985A1, “STAPLED PEPTIDES AND METHODS THEREOF” (priority 2020, published 2024)
In brackets after ≈: the same amount, converted by molar mass. Like-named read-outs stand apart in the source and are kept apart here.

Columns and labels:
[1] = CHI Log D procedure; type: physicochemical; settings: for CHI Log D: pH 7.4; for chromatographic logD: pH 7.4, CHI Log D
[2] = target: T1, beta-catenin/TCF4 engagement (Homo sapiens, UniProt P35222); assay: Nano-BRET target engagement assay (B-cat-Halo & TCF4-Luc in HEK293 cells); type: cell-based; settings: for inhibition at 10 µM: HEK293, @ 10 uM, read-out: NanoBRET % inh @ 10 uM
T1 construct: expressed in transfected cells; host or cells: HEK293
T1 sequence (P35222 1-781): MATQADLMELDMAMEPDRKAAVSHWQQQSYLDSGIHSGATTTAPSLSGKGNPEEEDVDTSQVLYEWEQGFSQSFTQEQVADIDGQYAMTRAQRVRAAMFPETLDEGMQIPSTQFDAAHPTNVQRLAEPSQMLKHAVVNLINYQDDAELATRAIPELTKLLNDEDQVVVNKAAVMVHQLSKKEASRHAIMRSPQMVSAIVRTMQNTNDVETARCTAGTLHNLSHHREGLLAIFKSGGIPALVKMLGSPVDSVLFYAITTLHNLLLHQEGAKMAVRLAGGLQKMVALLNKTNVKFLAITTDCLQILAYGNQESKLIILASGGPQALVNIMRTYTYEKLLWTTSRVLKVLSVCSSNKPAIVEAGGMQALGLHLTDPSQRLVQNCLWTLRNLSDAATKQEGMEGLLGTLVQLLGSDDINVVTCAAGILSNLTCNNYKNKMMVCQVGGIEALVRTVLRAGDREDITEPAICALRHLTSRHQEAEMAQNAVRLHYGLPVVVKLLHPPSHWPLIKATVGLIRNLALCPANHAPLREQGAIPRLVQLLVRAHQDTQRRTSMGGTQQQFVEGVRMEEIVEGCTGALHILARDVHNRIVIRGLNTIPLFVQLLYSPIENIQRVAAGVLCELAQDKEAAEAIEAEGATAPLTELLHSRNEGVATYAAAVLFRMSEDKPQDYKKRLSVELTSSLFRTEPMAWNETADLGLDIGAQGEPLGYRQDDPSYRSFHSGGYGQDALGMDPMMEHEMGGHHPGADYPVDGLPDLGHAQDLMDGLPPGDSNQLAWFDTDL

[3] = target: T2, full-length beta-Catenin (Uniprot ID P35222) (Homo sapiens, UniProt P35222); assay: Fluorescence polarization IC50 (beta-catenin / 5FAM-TCF4 10-53 competition); type: binding
T2 construct: 10 nM full-length beta-Catenin (Uniprot ID P35222)
T2 sequence (P35222 1-781): T1 sequence (P35222 1-781)

[4] = Solubility in PBS; type: physicochemical
How it was run: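 PBS sample ultracentrifuged; supernatant run on HPLC vs. 50 μM peptide in DMSO standard. Solubility = (PBS peak area / DMSO peak area) × 50 uM.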

[5] = absolute IC50, read-out: NanoBRET Abs IC50
[6] = fluorescence polarization, read-out: beta-Catenin FP IC50

Row | CHI Log D [1] | IC50 [2, 5] [nM] | IC50 [3, 6] [nM] | IC50 ([3]; read-out: FP EC50) [nM] | Solubility [4] [µM] | inhibition at 10 µM [2] [%] | chromatographic logD [1] | Solubility ([4]; Solubility (uM)) [µM] | IC50 ([2]; Abs IC50, read-out: NanoBRET Abs IC50) [nM] | IC50 ([2]; read-out: NanoBRET IC50) [nM] | SMILES
1 | 1.957 | 33900 | 11 | 11 | 50 (≈ 95.2 µg/mL) | – | – | – | – | – | CC(=O)N1CCC[C@]12CC=CCCCC1(CCCC=CCCCOC(=O)N3CC[C@@](C(=O)N[C@@H](Cc4ccsc4)C(=O)N[C@@H](Cc4csc5ccccc45)C(=O)N[C@@H](CCC(N)=O)C(N)=O)(C3)NC(=O)[C@H](CC(N)=O)NC(=O)[C@H](Cc3ccccc3)NC(=O)[C@H](C)NC(=O)[C@H](C)NC(=O)[C@H](CC(=O)O)NC(=O)[C@H](CC(=O)O)NC1=O)NC(=O)[C@H](CC(C)C)NC(=O)[C@H](CC(=O)O)NC2=O (stereo partly drawn) [I-689, Ac-PL3-Asp-Leu-B5-Asp-Asp-Ala-Ala-Phe-Asn-PyrS2-3Thi-BztA-Gln-NH2]
2 | 2.013 | 17800 | 7 | 7 | 44 (≈ 85 µg/mL) | – | – | – | – | – | CC(=O)N1CCC[C@]12CC=CCCCC1(CCCC=CCCCOC(=O)N3CC[C@@](C(=O)N[C@@H](Cc4ccsc4)C(=O)N[C@@H](Cc4csc5ccccc45)C(=O)N[C@@H](CCC(N)=O)C(N)=O)(C3)NC(=O)[C@H](CC(N)=O)NC(=O)[C@H](Cc3ccccc3)NC(=O)[C@H](C)NC(=O)[C@H](C)NC(=O)[C@H](CCC(=O)O)NC(=O)[C@H](CC(=O)O)NC1=O)NC(=O)[C@H](CC(C)(C)C)NC(=O)[C@H](CC(=O)O)NC2=O (stereo partly drawn) [I-690, Ac-PL3-Asp-Npg-B5-Asp-Glu-Ala-Ala-Phe-Asn-PyrS2-3Thi-BztA-Gln-NH2]
3 | 2.068 | 17000 | 9 | 9 | 45 (≈ 86.9 µg/mL) | – | – | – | – | – | CC(=O)N1CCC[C@]12CC=CCCCC1(CCCC=CCCCOC(=O)N3CC[C@@](C(=O)N[C@@H](Cc4ccsc4)C(=O)N[C@@H](Cc4csc5ccccc45)C(=O)N[C@@H](CCC(N)=O)C(N)=O)(C3)NC(=O)[C@H](CC(N)=O)NC(=O)[C@H](Cc3ccccc3)NC(=O)[C@H](C)NC(=O)[C@H](C)NC(=O)[C@H](CCC(=O)O)NC(=O)[C@H](CC(=O)O)NC1=O)NC(=O)[C@H](CC(C)(C)C)NC(=O)[C@H](CC(=O)O)NC2=O (stereo partly drawn) [I-691, Ac-PL3-Asp-Npg-B5-Asp-Glu-Ala-Ala-Phe-Asn-PyrS2-3Thi-BztA-Gln-NH2]
4 | 2.12 | 25600 | 9 | 9 | 38 (≈ 73.5 µg/mL) | – | – | – | – | – | CC(=O)N1CCC[C@]12CC=CCCCC1(CCCC=CCCCOC(=O)N3CC[C@@](C(=O)N[C@@H](Cc4ccccc4)C(=O)N[C@@H](Cc4csc5ccccc45)C(=O)N[C@@H](Cc4c[nH]cn4)C(N)=O)(C3)NC(=O)[C@H](CC(N)=O)NC(=O)[C@H](Cc3ccccc3)NC(=O)[C@H](C)NC(=O)[C@H](C)NC(=O)[C@H](CCC(=O)O)NC(=O)[C@H](CC(=O)O)NC1=O)NC(=O)[C@H](CC(C)(C)C)NC(=O)[C@H](CC(=O)O)NC2=O (stereo partly drawn) [I-692, Ac-PL3-Asp-Npg-B5-Asp-Glu-Ala-Ala-Phe-Asn-PyrS2-Phe-BztA-His-NH2]
5 | 2.184 | 28500 | 12 | 12 | 34 (≈ 65.8 µg/mL) | – | – | – | – | – | CC(=O)N1CCC[C@]12CC=CCCCC1(CCCC=CCCCOC(=O)N3CC[C@@](C(=O)N[C@@H](Cc4ccccc4)C(=O)N[C@@H](Cc4csc5ccccc45)C(=O)N[C@@H](Cc4c[nH]cn4)C(N)=O)(C3)NC(=O)[C@H](CC(N)=O)NC(=O)[C@H](Cc3ccccc3)NC(=O)[C@H](C)NC(=O)[C@H](C)NC(=O)[C@H](CCC(=O)O)NC(=O)[C@H](CC(=O)O)NC1=O)NC(=O)[C@H](CC(C)(C)C)NC(=O)[C@H](CC(=O)O)NC2=O (stereo partly drawn) [I-693, Ac-PL3-Asp-Npg-B5-Asp-Glu-Ala-Ala-Phe-Asn-PyrS2-Phe-BztA-His-NH2]
6 | 2.073 | – | 5 | – | 40 (≈ 77.1 µg/mL) | 32.7 | – | – | – | – | CC(=O)N1CCC[C@]12CC=CCCCC1(CCCC=CCCCOC(=O)N3CC[C@@](C(=O)N[C@@H](Cc4ccsc4)C(=O)N[C@@H](Cc4csc5ccccc45)C(=O)N[C@@H](Cc4c[nH]cn4)C(N)=O)(C3)NC(=O)[C@H](CC(N)=O)NC(=O)[C@H](Cc3ccccc3)NC(=O)[C@H](C)NC(=O)[C@H](C)NC(=O)[C@H](CC(=O)O)NC(=O)[C@H](CC(=O)O)NC1=O)NC(=O)[C@H](CC(C)(C)C)NC(=O)[C@H](CC(=O)O)NC2=O (stereo partly drawn) [I-694, Ac-PL3-Asp-Npg-B5-Asp-Asp-Ala-Ala-Phe-Asn-PyrS2-3Thi-BztA-His-NH2]
7 | – | – | 5 | – | – | 17 | 2 | 40 (≈ 76.5 µg/mL) | – | – | CC(=O)N1CCC[C@]12CC=CCCCC1(CCCC=CCCCOC(=O)N3CC[C@@](C(=O)N[C@@H](Cc4ccsc4)C(=O)N[C@@H](Cc4csc5ccccc45)C(=O)N[C@@H](Cc4c[nH]cn4)C(N)=O)(C3)NC(=O)[C@H](CC(N)=O)NC(=O)[C@H](Cc3ccccc3)NC(=O)[C@H](C)NC(=O)[C@H](C)NC(=O)[C@H](CC(=O)O)NC(=O)[C@H](CC(=O)O)NC1=O)NC(=O)[C@H](CC(C)C)NC(=O)[C@H](CC(=O)O)NC2=O (stereo partly drawn) [I-696, Ac-PL3-Asp-Leu-B5-Asp-Asp-Ala-Ala-Phe-Asn-PyrS2-3Thi-BztA-His-NH2]
8 | 2.093 | 14700 | 5 | – | 21 (≈ 40.8 µg/mL) | – | – | – | – | – | CC(=O)N1CCC[C@]12CC=CCCCC1(CCCC=CCCCOC(=O)N3CC[C@@](C(=O)N[C@@H](Cc4ccsc4)C(=O)N[C@@H](Cc4csc5ccccc45)C(=O)N[C@@H](Cc4c[nH]cn4)C(N)=O)(C3)NC(=O)[C@H](CC(N)=O)NC(=O)[C@H](Cc3ccccc3)NC(=O)[C@H](C)NC(=O)[C@H](C)NC(=O)[C@H](CCC(=O)O)NC(=O)[C@H](CC(=O)O)NC1=O)NC(=O)[C@H](CC(C)(C)C)NC(=O)[C@H](CC(=O)O)NC2=O (stereo partly drawn) [I-697, Ac-PL3-Asp-Npg-B5-Asp-Glu-Ala-Ala-Phe-Asn-PyrS2-3Thi-BztA-His-NH2]
9 | 2.631 | 18100 | 34 | 34 | 46 (≈ 90.7 µg/mL) | – | – | – | – | – | CC[C@H](C)[C@@H]1NC(=O)[C@H](CC(=O)O)NC(=O)[C@]2(CC=CCCCC3(CCCC=CCCCCCC[C@@](C)(C(=O)N[C@@H](Cc4ccsc4)C(=O)N[C@@H](Cc4csc5ccccc45)C(=O)N[C@@H](CCC(N)=O)C(N)=O)NC(=O)[C@H](CC(N)=O)NC(=O)[C@H](Cc4ccccc4)NC(=O)[C@H](C)NC(=O)[C@H](C)NC(=O)[C@H](CN(CC(=O)O)CC(F)(F)F)NC(=O)[C@H](CC(=O)O)NC3=O)NC1=O)CCCN2C(C)=O (stereo partly drawn) [I-701, Ac-PL3-Asp-Ile-B5-Asp-TfeGA-Ala-Ala-Phe-Asn-S8-3Thi-BztA-Gln-NH2]
10 | – | – | 57 | – | 50 (≈ 99 µg/mL) | – | 2.76 | – | 11900 | – | CC(=O)N1CCC[C@]12CC=CCCCC1(CCCC=CCCCCCC[C@@](C)(C(=O)N[C@@H](Cc3ccccc3)C(=O)N[C@@H](Cc3csc4ccccc34)C(=O)N[C@@H](CCC(N)=O)C(N)=O)NC(=O)[C@H](CC(N)=O)NC(=O)[C@H](Cc3ccccc3)NC(=O)[C@H](C)NC(=O)[C@H](C)NC(=O)[C@H](CN(CC(=O)O)CC(F)(F)F)NC(=O)[C@H](CC(=O)O)NC1=O)NC(=O)[C@H](CC(C)(C)C)NC(=O)[C@H](CC(=O)O)NC2=O (stereo partly drawn) [I-703, Ac-PL3-Asp-Npg-B5-Asp-TfeGA-Ala-Ala-Phe-Asn-S8-Phe-BztA-Gln-NH2]
11 | – | – | 49 | – | – | – | 2.75 | 42 (≈ 83.4 µg/mL) | – | 7900 | CC(=O)N1CCC[C@]12CC=CCCCC1(CCCC=CCCCCCC[C@@](C)(C(=O)N[C@@H](Cc3ccsc3)C(=O)N[C@@H](Cc3csc4ccccc34)C(=O)N[C@@H](CCC(N)=O)C(N)=O)NC(=O)[C@H](CC(N)=O)NC(=O)[C@H](Cc3ccccc3)NC(=O)[C@H](C)NC(=O)[C@H](C)NC(=O)[C@H](CN(CC(=O)O)CC(F)(F)F)NC(=O)[C@H](CC(=O)O)NC1=O)NC(=O)[C@H](CC(C)(C)C)NC(=O)[C@H](CC(=O)O)NC2=O (stereo partly drawn) [I-704, Ac-PL3-Asp-Npg-B5-Asp-TfeGA-Ala-Ala-Phe-Asn-S8-3Thi-BztA-Gln-NH2]
12 | 2.976 | – | 52 | 52 | 47 (≈ 94.6 µg/mL) | – | – | – | – | 11500 | CC(=O)N1CCC[C@]12CC=CCCCC1(CCCC=CCCCCCC[C@@](C)(C(=O)N[C@@H](Cc3ccsc3)C(=O)N[C@@H](Cc3csc4ccccc34)C(=O)N[C@@H](CCC(N)=O)C(N)=O)NC(=O)[C@H](CC(N)=O)NC(=O)[C@H](Cc3ccccc3)NC(=O)[C@H](C)NC(=O)[C@H](C)NC(=O)[C@H](CN(CC(=O)O)CC(F)(F)F)NC(=O)[C@H](CC(=O)O)NC1=O)NC(=O)[C@H](CC1CCCCC1)NC(=O)[C@H](CC(=O)O)NC2=O (stereo partly drawn) [I-708, Ac-PL3-Asp-Cha-B5-Asp-TfeGA-Ala-Ala-Phe-Asn-S8-3Thi-BztA-Gln-NH2]
